pIC50: −log10 of the molar value. Values joined by “and” are separate entries in the source; they are usually repeats but may differ in a detail not shown here. Equal entries are not always repeated. Structures can show the parent of a compound that is named as a salt. Where two headings read alike, the source gives them in different places.
What was measured:
BCL-2 = BCL-2 (Homo sapiens (Human), UniProt P10415); assay: Protein-protein interaction assay BCL-2/Bad BH3 peptide (BCL-2 assay), TR-FRET; type: binding; conditions: BCL-2/Bad BH3 peptide TR-FRET; median
Experimental: Assay 3 Protein-Protein Interaction assay: BCL-2/Bad BH3 Peptide (BCL-2 Assay)
The dose-dependent inhibition by the compounds described in this invention of the interaction between BCL-2 and the BH3 domain of Bad (both human) was determined using a steady state binding competition assay with time-resolved fluorescence energy transfer (TR-FRET) readout. For that purpose BCL-2 (amino acids 1-211, C-terminal fused to a hexahistidine (6× His) tag (SEQ ID 5) and a synthetic Bad BH3-derived peptide of sequence Biotin-PEG2-PEG2-NLWAAQRYGRELRR-Nle-SDEFVDSFKK-amide (SEQ ID 4) served as protein receptor and tracer ligand respectively. The recombinant BCL-2 protein (expressed in E. coli) was purchased from BPS Bioscience (San Diego, Calif., USA). The Bad BH3-derived peptide can be obtained from e.g. Biosyntan (Berlin, Germany).
In the assay 11 different concentrations of each compound (0.1 nM, 0.33 nM, 1.1 nM, 3.8 nM, 13 nM, 44 nM, 0.15 μM, 0.51 μM, 1.7 μM, 5.9 μM and 20 μM) were typically measured as duplicates in the same microtiter plate. For that, 100-fold concentrated DMSO solutions were prepared by serial dilutions (1:3.4) of a 2 mM stock solution in a clear, 384-well microtiter plate (Greiner Bio-One, Frickenhausen, Germany). From there, 50 nl were transferred in a dark test plate (Greiner Bio-One, Frickenhausen, Germany). The assay was initiated by addition of 2 μl of a 2,5-fold concentrated His-BCL-2 solution (usually for a 1 nM end concentration in 5 μl reaction volume) in aqueous assay buffer [50 mM Tris/HCl pH 7, 100 mM sodium chloride (NaCl), 50 mM potassium fluoride (KF), 0.005% Tween-20, 2 mM DTT, 0.1% bovine gamma globulin (BGG)] to the compounds in the assay plate. This was followed by a 10-minute incubation step at 22° C. for pre-equilibration of the putative complex between His-BCL-2 and the compounds. After that, 3 μl of a 1.67-fold concentrated solution (in assay buffer) consisting of Bad BH3-derived peptide (1 nM end concentration) and TR-FRET detection reagents [1.67 nM anti-His-Eu cryptate and 1.67 nM streptavidin-XL665 (both from Cisbio Bioassays, Codolet, France)], were added.
The mixture was incubated in the dark for one hour at 22° C. and then overnight at 4° C. The formation of BCL-2/Bad complexes was determined by measuring the resonance energy transfer of the anti-His-Eu-cryptate antibody to the streptavidin-XL665 present in the reaction. For that purpose, the fluorescence emission at 620 nm and 665 nm after excitation at 330-350 nm was measured in a TR-FRET measuring instrument, for instance a Rubystar or a Pherastar (both from BMG Lab Technologies, Offenburg, Germany) or a Viewlux (Perkin-Elmer). The ratio of the emission at 665 nm and at 622 nm was used as indicator of the amount of BCL-2/Bad complexes present.
The resulting data (ratio) were normalized, taking 0% inhibition as the mean value of control measurements (usually 32 data points) where all reagents were included. In this case 50 nl DMSO were used instead of compounds. A 100% inhibition corresponded to the mean value of control measurements (usually 32 data points) where all reagents except BCL-2 were included. IC50 values were determined by regression analysis based on a 4 parameter equation (minimum, maximum, IC50, Hill; Y=Max+(Min−Max)/(1+(X/IC50)^Hill) using the Screener Software (Genedata).

SUDHL5 [1] = assay: Induction of caspase-3/7 activity, SUDHL5 (Assay 4); type: cell-based; conditions: SUDHL5 cells
Method in brief: (§1)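 DLBCL lines treated with compounds for 3 h at 37° C.; caspase-3/7 activity read by Caspase-Glo 3/7 luminescence. Medium-only background subtracted; EC50 fitted with bottom fixed at 1 and top set to reference compound's maximal induction.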

SUDHL10 = assay: Induction of caspase-3/7 activity, SUDHL10 (Assay 4); type: cell-based; conditions: SUDHL10 cells
Method in brief: as §1

SUDHL5 [2] = assay: Antiproliferation assay SUDHL5 (Assay 7); type: cell-based; conditions: SUDHL5 cells, CellTiter-Glo, median, read-out: IC50 Antiproli SUDHL5 [M] (median)
Method in brief: (§2)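 Cells were incubated with compounds for 72 h at 37°C. Viability was then read by CellTiter-Glo luminescence, and a parallel day 0 plate read the same way gave the time-zero signal.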

SUDHL5 [3] = assay: Induction of cytotoxicity, SUDHL5 (Assay 6); conditions: read-out: IC50 Cytotox SUDHL5 [M] (median), SUDHL5 cells, 5 h, CellTiter-Glo
Experimental: In principle, compounds that induce apoptosis will concomitantly induce cell cytotoxicity. Therefore, cytotoxicity assays were run in parallel in SUDHL5 and SUDHL10 cells.
The different cell lines were plated in culture medium (RPMI 1640 [GIBCO #22400-089] supplemented with 10% Fetal Bovine Serum) at a density of 3,300 cells in 30 μl/well in a sterile, solid black, flat bottom, polystyrene, TC-treated 384-well microplate (Corning #3571) using Multidrop Combi Reagent Dispenser. As a control, medium without cells was also added to the plate. Cells were incubated in a humidified incubator at 37° C. overnight. On the next day, the cells were treated with compounds (stock solution, 10 mM in DMSO) using the HP D300 Digital Dispenser in a concentration range of 3.3×10e-5 M (33 μM) to 5×10e-9 M (5 nM) in a single-dot curve with at least 16 dilutions and a DMSO concentration of 0.33%. Rim wells were excluded. The cells were incubated for 5 h hours in a humidified incubator at 37° C. After this incubation, 30 μl of CellTiter-Glo® Luminescent Cell Viability reagent (Promega, G7573) was added to each well using the Multidrop Combi Reagent Dispenser, followed by 15 min incubation on a shaker at room temperature. Finally, luminescence was read at 0.1 ms, with a gain of 3000 using the PHERAstar FS microplate reader (BMG Labtech).
The Bella DRC Master Sheet was used to calculate IC50s, with fixed CI=0 and C0=1.

MV-4-11 = assay: Antiproliferation assay MV-4-11 (Assay 7); type: cell-based; conditions: MV-4-11 cells, 72 h, CellTiter-Glo, single determinations, read-out: IC50 Antiproli MV-4-11
Method in brief: as §2

[4] = Homo sapiens, SU-DHL-5, 3 h, Caspase-Glo 3/7, median
[5] = Homo sapiens, SU-DHL10, 3 h, Caspase-Glo 3/7, median

Chain of BCL-2 (P10415 1-211): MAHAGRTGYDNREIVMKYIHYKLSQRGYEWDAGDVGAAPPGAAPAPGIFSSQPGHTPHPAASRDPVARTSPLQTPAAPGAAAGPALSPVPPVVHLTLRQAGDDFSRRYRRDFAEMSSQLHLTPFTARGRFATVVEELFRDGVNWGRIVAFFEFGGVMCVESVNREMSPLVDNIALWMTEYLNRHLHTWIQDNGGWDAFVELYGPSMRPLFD

SMILES	IC50 (BCL-2) [nM]	EC50 (SUDHL5 [1]; [4]) [nM]	EC50 (SUDHL10; [5]) [nM]	IC50 (SUDHL5 [2]; Homo sapiens, SU-DHL-5, 72 h) [M]	IC50 (SUDHL5 [3]; Homo sapiens, SU-DHL-5, 5 h) [M]	EC50 (SUDHL5 [1]; 3 h, Caspase-Glo 3/7, median) [nM]	EC50 (SUDHL10; 3 h, Caspase-Glo 3/7, median) [nM]	IC50 (SUDHL5 [2]; 72 h) [M]	pIC50 (MV-4-11; listed as 07)	IC50 (SUDHL5 [3]) [M]	pIC50 (MV-4-11)
Cc1c2c(nn1C)COCCCCn1c(C(=O)O)c(CCCOc3ccc(F)c4ccccc34)c3ccc(F)c-2c31 (racemic) [Example 15, (rac)-13-fluoro-1-(3-((4-fluoronaphthalen-1-yl)oxy)propyl)-11,12-dimethyl-4,5,6,7,9,11-hexahydropyrazolo[4′,3′:9,10][1]oxa[6]azacycloundecino[8,7,6-hi]indole-2-carboxylic acid]	> 20000	970	5800	5.3e-07	1.1e-06	–	–	–	–	–	–
CCc1c2c(nn1C)COCCCCn1c(C(=O)O)c(CCCOc3cccc4ccccc34)c3ccc(F)c-2c31 (single isomer, unassigned; enantiomer 1) [Example 7, 3-ethyl-4-fluoro-2-methyl-7-{3-[(naphthalen-1-yl)oxy]propyl}-2,10,11,12,13,15-hexahydro-pyrazolo[4′,3′:9,10][1,6]oxazacycloundecino[8,7,6-hi]indole-8-carboxylic acid-N-ethylethanamine salt (enantiomer 1)]	–	–	–	–	–	370	1000	7.5e-07	5.63 and 5.71	4.6e-07	–
Cc1c2c(nn1C)CNCCCCn1c(C(=O)O)c(CCCOc3cccc4ccccc34)c3ccc(F)c-2c31 (single isomer, unassigned; enantiomer 1) [Example 48, 4-fluoro-2,3-dimethyl-7-{3-[(naphthalen-1-yl)oxy]propyl}-10,11,12,13,14,15-hexahydro-2H-pyrazolo[3′,4′:8,9][1,6]diazacycloundecino[10,11,1-hi]indole-8-carboxylic acid (enantiomer 1)]	> 20000	–	–	–	–	1200	2100	1.4e-06	–	1.3e-06	–
Cc1c2c(nn1C)COCCCCn1c(C(=O)O)c(CCCOc3cccc4cc(F)ccc34)c3ccc(F)c-2c31 (single isomer, unassigned; enantiomer 1) [Example 13, 4-fluoro-7-{3-[(6-fluoronaphthalen-1-yl)oxy]propyl}-2,3-dimethyl-2,10,11,12,13,15-hexahydro-pyrazolo[4′,3′:9,10][1,6]oxazacycloundecino[8,7,6-hi]indole-8-carboxylic acid-N-ethylethanamine salt (enantiomer 1)]	–	–	–	–	–	340	680	2.9e-07	–	3.9e-07	6.17 and 6.39
CCc1c2c(nn1C)COCCCCn1c(C(=O)O)c(CCCOc3ccc(F)c4ccccc34)c3ccc(F)c-2c31 (single isomer, unassigned; enantiomer 1) [Example 27, 3-ethyl-4-fluoro-7-{3-[(4-fluoronaphthalen-1-yl)oxy]propyl}-2-methyl-2,10,11,12,13,15-hexahydropyrazolo[4′,3′:9,10][1,6]oxazacycloundecino[8,7,6-hi]indole-8-carboxylic acid-N-ethylethanamine salt (enantiomer 1)]	–	–	–	–	–	660	1600	6.2e-07	–	1e-06	–
CCc1c2c(nn1C)COCCCCn1c(C(=O)O)c(CCCOc3cccc4cc(F)ccc34)c3ccc(F)c-2c31 (single isomer, unassigned; enantiomer 2) [Example 23, 3-ethyl-4-fluoro-7-{3-[(6-fluoronaphthalen-1-yl)oxy]propyl}-2-methyl-2,10,11,12,13,15-hexahydropyrazolo[4′,3′:9,10][1,6]oxazacycloundecino[8,7,6-hi]indole-8-carboxylic acid-N-ethylethanamine salt (enantiomer 2)]	–	–	–	–	–	2700	11000	1.4e-06	–	3.2e-06	4.81
Cc1c2c(nn1C)COCCCCn1c(C(=O)O)c(CCCOc3cccc4ccccc34)c3ccc(F)c-2c31 (racemic) [Example 2, (rac)-4-fluoro-2,3-dimethyl-7-[3-(naphthalen-1-yloxy)propyl]-2,10,11,12,13,15-hexahydro-pyrazolo[4′,3′:9,10][1,6]oxazacycloundecino[8,7,6-hi]indole-8-carboxylic acid]	–	600	1300	1.4e-06	1e-06	–	–	–	–	–	–
CCc1c2c(nn1C)COCCCCn1c(C(=O)O)c(CCCOc3cccc4cc(F)ccc34)c3ccc(F)c-2c31 (single isomer, unassigned; enantiomer 1) [Example 22, 3-ethyl-4-fluoro-7-{3-[(6-fluoronaphthalen-1-yl)oxy]propyl}-2-methyl-2,10,11,12,13,15-hexahydropyrazolo[4′,3′:9,10][1,6]oxazacycloundecino[8,7,6-hi]indole-8-carboxylic acid-N-ethylethanamine salt (enantiomer 1)]	–	–	–	–	–	210	380	2.7e-07	–	3.3e-07	–
Cc1c2c(nn1C)COCCCCn1c(C(=O)O)c(CCCOc3cccc4ccccc34)c3ccc(F)c-2c31 (single isomer, unassigned; enantiomer 1) [Example 3, 4-fluoro-2,3-dimethyl-7-[3-(naphthalen-1-yloxy)propyl]-2,10,11,12,13,15-hexahydropyrazolo-[4′,3′:9,10][1,6]oxazacycloundecino[8,7,6-hi]indole-8-carboxylic acid-N-ethylethanamine salt (enantiomer 1)]	–	–	1300	–	–	650	–	6.4e-07	–	7.7e-07	–
CCc1nn(C)c2c1-c1c(F)ccc3c(CCCOc4cccc5cc(F)ccc45)c(C(=O)O)n(c13)CCCCOC2 (single isomer, unassigned; enantiomer 1) [Example 39, 3-ethyl-4-fluoro-7-{3-[(6-fluoronaphthalen-1-yl)oxy]propyl}-1-methyl-1,10,11,12,13,15-hexahydropyrazolo[4′,3′:9,10][1,6]oxazacycloundecino[8,7,6-hi]indole-8-carboxylic acid-N-ethylethanamine salt (enantiomer 1)]	–	–	–	–	–	560	940	6.8e-07	–	6.2e-07	–
CCc1c2c(nn1C)COCCCCn1c(C(=O)O)c(CCCOc3cccc4cc(F)ccc34)c3ccc(F)c-2c31 (single isomer, unassigned; enantiomer 1) [Example 24, 3-ethyl-4-fluoro-7-{3-[(6-fluoronaphthalen-1-yl)oxy]propyl}-2-methyl-2,10,11,12,13,15-hexahydropyrazolo[4′,3′:9,10][1,6]oxazacycloundecino[8,7,6-hi]indole-8-carboxylic acid (enantiomer 1)]	> 20000	–	–	–	–	–	540	3.2e-07	–	3.9e-07	–

Source: patent US11286263B2, “Macrocyclic fluorine substituted indole derivatives” (The Broad Institute, Inc., priority 2017, dated 2022)
